Test results from patent US9950026B2, “Methods for reducing oxidative damage” (Cornell Research Foundation, Inc., priority 2004, dated 2018).
Where a SMILES comes first, the peptide text is derived from it. [ ]: non-standard residue; d: D form. Dmt = Cc1cc(O)cc(C)c1C[C@H](N)C(=O)O

Assays:
[1] = test system: C57BL/6 mice subjected to MCAO; experiment: Infarct size, swelling and cerebral blood flow after MCAO; assay type: in vivo; details: for reduction in infarct volume: 2 mg/kg i.p., 3 days after ischemia
Protocol: FIG. 32A-32F. Effect of SS-31 peptide on ischemia-induced infarct size and swelling in C57BL/6 mice. Shown are representative serial sections (1.2 mm apart) stained with Cresyl Violet from mice subjected to 30 min (A) and 20 min (B) MCAO and treated with vehicle (Veh) or SS-31 (2 mg/kg body weight) immediately after reperfusion, 6 h, 24 h, and 48 h.
To address whether SS-31-induced attenuation in GSH depletion is associated with neuroprotection, mice were subjected to 30 or 20 min MCAO and then treated with vehicle or SS-31 (2 mg/kg, i.p.) upon reperfusion) and at 6 h, 24 h, 48 h after MCAO. Infarct volumes and hemispheric swelling were determined at 3 days after ischemia.

[2] = test system: SH-SY5Y; experiment: tBHP-induced LDH release; assay type: cell-based, human; details: 100 μM tBHP
Protocol: (§1) FIG. 18A-18B. SS-31 reduced tBHP-induced LDH release in SH-SY5Y (A) and N2A (B) cells. Cells were treated with 100 μM tBHP alone, or with SS-31, for 24 h. *P<0.05, **P<0.01, ***P<0.001, compared to tBHP alone.
(§2) The loss of cell viability induced by 100 μM tBHP was accompanied by a significant increase in LDH release in SH-SY5Y (FIG. 18A) and N2A cell (FIG. 18B).

[3] = test system: N2A cells; experiment: Mitochondrial potential (TMRM) after tBHP; assay type: cell-based, murine; details: 0.1 mM t-BHP, 1 nM SS-31, 6 h
Protocol: N2A cells in glass bottom dish were treated with 0.1 mM t-BHP, alone or with 1 nM SS-31, for 6 h. Cells were then loaded with 10 μm of dichlorofluorescin (ex/em=485/530) for 30 min at 37° C., 5% CO2. Then cells were subjected 3 times wash with HBSS and stained with 20 nM of Mitotracker TMRM (ex/em=550/575 nm) for 15 min at 37° C. and examined by confocal laser scanning microscopy.

[4] = test system: Mouse pancreatic islet cells; experiment: tBHP oxidative damage in islet cells (TMRM, DCF); assay type: cell-based; details: 25 μM tBHP, 1 nM SS-31
Protocol: Mouse pancreatic islet cells were untreated (a), or treated with 25 μM tBHP without or with 1 nM SS-31 (c). Mitochondrial potential was measured by TMRM (red) and reactive oxygen species were measured by DCF (green) using confocal microscopy.

[5] = test system: DBA/2 islet cells; experiment: Islet cell uptake of [3H]SS-31; assay type: in vitro ADME, mouse
Protocol: FIG. 33A-33B. SS peptides penetrate islet cells, co-localize with mitochondria and preserve islet mitochondrial membrane potential. (A) Islet cell uptake of SS-31. DBA/2 islet cells were incubated with 1 nM of tritium labeled SS-31 and 1 μM unlabeled SS-31 at 37° C. for 1 h. Following incubation, radioactivity was measured in the medium and in cell lysates and the radioactive counts in the medium were subtracted from radioactive counts in the cell lysate and normalized to protein content. In four consecutive experiments, the mean±(SE) [^3H]SS-31 uptake was 70.2+/31 10.3 pmol/mg, of proteins (B)(i-iv) SS-31 preserves islet mitochondrial potential. DBA/2 mice were treated with SS-31 (3 mg/kg s.c. BID) or vehicle control 24 hours prior to pancreas harvest for islet isolation. SS-31 treated groups had 1 nM SS-31 added to the islet isolation reagents. Following isolation, TMRM uptake was evaluated using confocal laser scanning microscopy.
Islets are tightly adherent cell clusters and entry of peptides/proteins may be impaired given their architecture.

[6] = test system: N2A cells; experiment: Mitochondrial function, MTT assay, after tBHP; assay type: cell-based, murine
Protocol: FIG. 23A-23B. SS-31 protected against tBHP-induced […]. (A) SS-31 protected mitochondrial viability in N2A cells treated with tBHP for 24 h. Mitochondrial viability was evaluated using the MTT assay (*P<0.01 compared to untreated cells, *P<0.05, P<0.01 compared to tBHP alone). (B) SS-31 protected mitochondrial viability in SH-SY5Y cells treated with tBHP for […] (*P<0.01 compared to untreated cells; **P<0.01 compared to tBHP alone).
(§3) Only viable mitochondria containing NADPH dehydrogenase activity are capable of cleaving MTT to the formazan. A 50 μM tBHP induced 50% loss of mitochondrial function in N2A cells (FIG. 23A, […]) and 30% loss of mitochondrial function in SH-SY5Y cells (FIG. 23B, P<0.01). […] Treatment of N2A cells with SS-31 alone had no effect on mitochondrial function.

[7] = test system: G93A transgenic familial ALS mice; experiment: Motor performance by rotarod in ALS mice; assay type: in vivo; details: between day 100 and 130
[8] = test system: N2A cells; experiment: tBHP-induced LDH release; assay type: cell-based, murine; details: 100 μM tBHP
Protocol: as §1, §2

[9] = test system: SH-SY5Y cells; experiment: Mitochondrial function, MTT assay, after tBHP; assay type: cell-based, human; details: tBHP 50-100 μM, 24 h
Protocol: FIG. 23A-23B. SS-31 protected against tBHP-induced mitochondrial viability. (A) SS-31 protected mitochondrial viability in N2A cells treated with tBHP for 24 h. Mitochondrial viability was evaluated using the MTT assay (*P<0.01 compared to untreated cells, *P<0.05, P<0.01 compared to tBHP alone). […]
as §3

[10] = test system: Caco-2; experiment: Cellular uptake of [3H][Dmt1]DALDA; assay type: in vitro ADME, human; details: estimated
Protocol: The cellular uptake of [^3H][Dmt^1]DALDA was studied using a human intestinal epithelial cell line (Caco-2), and confirmed with SH-SY5Y (human neuroblastoma cell), HEK293 (human embryonic kidney cell) and CRFK cells (kidney epithelial cell). Monolayers of cells were grown on 12-well plates (5×10^5 cells/well) coated with collagen for 3 days. On day 4, cells were washed twice with pre-warmed HBSS, and then incubated with 0.2 ml of HBSS containing either 250 nM [^3H][Dmt^1]DALDA at 37° C. […] 4° C. for various times up to 1 h.
In a separate experiment, cells were incubated with a range of [Dmt^1]DALDA concentrations (1 μM-3 mM) for 1 h at 37° C. At the end of the incubation period, cells were washed 4 times with HBSS, and 0.2 ml of 0.1N NaOH with 1% SDS was added to each well. The cell contents were then transferred to scintillation vials and radioactivity counted. To distinguish between internalized radioactivity from surface-associated radioactivity, an acid-wash step was included. Prior to cell lysis, cells were incubated with 0.2 ml of 0.2 M acetic acid/0.05 M NaCl for 5 min on ice.

Compound	reduction in infarct volume ([1]; 20 min ischemia)	reduction in infarct volume ([1]; 30 min ischemia)	hemispheric swelling ([1]; both 30 and 20 min ischemic paradigms)	LDH release ([2]; 0.1 and 1 nM of SS-31)	LDH release ([2]; 24 h)	mitochondrial depolarization (TMRM fluorescence) [3]	oxidative damage caused by tBHP [4]	penetration of intact mouse islets [5]	tBHP-induced mitochondrial toxicity/dysfunction (MTT) ([6]; tBHP 50-100 μM, 24 h)	mitochondrial function, peptide alone ([6]; without tBHP)	motor performance (rotarod) [7]	LDH release ([8]; 0.1 and 1 nM of SS-31)	LDH release / tBHP-induced cytotoxicity ([8]; 24 h)	tBHP-induced mitochondrial toxicity (MTT) [9]	intracellular concentration relative to extracellular concentration [10]
Cc1cc(O)cc(C)c1C[C@H](NC(=O)[C@H](N)CCCNC(=N)N)C(=O)N[C@@H](CCCCN)C(=O)N[C@@H](Cc1ccccc1)C(N)=O [SS-31, D-Arg-2′6′-Dmt-Lys-Phe-NH2] (H-[dR][Dmt]KF-NH2; N-terminus assumed)	30%	24%	significantly attenuated	reduced significantly	dose-dependent decrease	prevented mitochondrial depolarization	reduces oxidative damage	readily penetrates	dose-dependently reduced	no effect	significantly improved	reduced significantly	dose-dependent decrease	dose-dependently reduced	
2′,6′-Dmt-Arg-Phe-Lys-NH2 [SS-02]															approximately 50 times
